Test results as given in ChEMBL document CHEMBL1201862, “PubChem BioAssay data set” (2004).
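Step 1: Grow cells in 96-well plates. Step 2: Expose to compound for 48 hours at 5 concentrations. Step 3: Interpolate endpoints linearly; if unreached, use highest concentration. At the GI50, growth is halved.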 The source made the active and inactive calls. Rule as the data show it: active = GI50 up to about 1.1 µM and inactive = higher.

Experiments:
Assay in all cases: NCI-60 cell line screen, 48 h
BT-549 = system: BT-549
CAKI-1 = system: CAKI-1
HCC 2998 = system: HCC 2998
HL-60 = system: HL-60
HOP-92 = system: HOP-92
HT-29 = system: HT-29
IGROV-1 = system: IGROV-1
K562 = system: K562
MDA-MB-231 = system: MDA-MB-231
MDA-MB-435 = system: MDA-MB-435
NCI-H460 = system: NCI-H460
OVCAR-3 = system: OVCAR-3
PC-3 = system: PC-3
RXF 393 = system: RXF 393
SK-OV-3 = system: SK-OV-3
SN12C = system: SN12C
SNB-19 = system: SNB-19
UACC-62 = system: UACC-62
UO-31 = system: UO-31
SR = system: SR

SMILES | GI50 (BT-549) | GI50 (CAKI-1) | GI50 (HCC 2998) | GI50 (HL-60) | GI50 (HOP-92) | GI50 (HT-29) | GI50 (IGROV-1) | GI50 (K562) | GI50 (MDA-MB-231) | GI50 (MDA-MB-435) | GI50 (NCI-H460) | GI50 (OVCAR-3) | GI50 (PC-3) | GI50 (RXF 393) | GI50 (SK-OV-3) | GI50 (SN12C) | GI50 (SNB-19) | GI50 (UACC-62) | GI50 (UO-31) | GI50 (SR)
N#CC1=C(N)OC2=C(CCCc3ccc([N+](=O)[O-])cc32)C1c1ccc(Cl)cc1 (stereo not drawn) | 17.4 µM (inactive) | 4.11 µM (inactive) | 8.02 µM (inactive) | 1.89 µM (inactive) | 37 µM (inactive) | 4.1 µM (inactive) | 8.71 µM (inactive) | 3.88 µM (inactive) | 7.91 µM (inactive) | 5.92 µM (inactive) | 3.83 µM (inactive) | 6.34 µM (inactive) | 3.94 µM (inactive) | 4.68 µM (inactive) | 13.7 µM (inactive) | 2.74 µM (inactive) | 32.9 µM (inactive) | 5.02 µM (inactive) | 3.3 µM (inactive) | 
CCN1c2nc3ccccc3nc2N(CC)c2nc3ccccc3nc21 | 80.5 µM (inactive) | 55.8 µM (inactive) | 50.5 µM (inactive) | 34.7 µM (inactive) |  | 39.5 µM (inactive) | 23.2 µM (inactive) | 34 µM (inactive) | 70.8 µM (inactive) | 42.3 µM (inactive) | 32.9 µM (inactive) | 41.2 µM (inactive) | 61.5 µM (inactive) | 55.5 µM (inactive) | > 100 µM (inactive) | 47.1 µM (inactive) | > 100 µM (inactive) | 39.2 µM (inactive) | 96.6 µM (inactive) | 12.8 µM (inactive)
CC(O)CN1c2ccccc2Sc2ccc(Cl)cc21 (stereo not drawn) | > 10 µM (inactive) | > 10 µM (inactive) | > 10 µM (inactive) | > 10 µM (inactive) | > 10 µM (inactive) | > 10 µM (inactive) | > 10 µM (inactive) | > 10 µM (inactive) | > 10 µM (inactive) | > 10 µM (inactive) | > 10 µM (inactive) | > 10 µM (inactive) | > 10 µM (inactive) | > 10 µM (inactive) | > 10 µM (inactive) | > 10 µM (inactive) | > 10 µM (inactive) | > 10 µM (inactive) | > 10 µM (inactive) | 
CCOC(=O)c1cc2cc(C)cc(C(=O)c3ccc([N+](=O)[O-])cc3)c2[nH]1 | > 100 µM (inactive) | > 100 µM (inactive) | > 100 µM (inactive) | > 100 µM (inactive) | 93.8 µM (inactive) | > 100 µM (inactive) | > 100 µM (inactive) | > 100 µM (inactive) | 38.5 µM (inactive) | > 100 µM (inactive) | > 100 µM (inactive) | > 100 µM (inactive) | > 100 µM (inactive) | 37.7 µM (inactive) | > 100 µM (inactive) | > 100 µM (inactive) | > 100 µM (inactive) | > 100 µM (inactive) | > 100 µM (inactive) | 
CCOC(=O)NN(C(=O)OCC)c1c(C)cc(C)cc1C | > 100 µM (inactive) | > 100 µM (inactive) | > 100 µM (inactive) | > 100 µM (inactive) |  | > 100 µM (inactive) | 64.4 µM (inactive) | > 100 µM (inactive) | > 100 µM (inactive) | > 100 µM (inactive) | > 100 µM (inactive) | > 100 µM (inactive) | > 100 µM (inactive) | 21 µM (inactive) | > 100 µM (inactive) | > 100 µM (inactive) | > 100 µM (inactive) | > 100 µM (inactive) | 98.9 µM (inactive) | > 100 µM (inactive)
C[N+](C)([O-])CCC=C1c2ccccc2CCc2ccccc21 | 41.9 µM (inactive) | 28.8 µM (inactive) |  | 12.6 µM (inactive) | 25.5 µM (inactive) | 22.3 µM (inactive) | 17.1 µM (inactive) | 19.2 µM (inactive) | 30.7 µM (inactive) | 15.7 µM (inactive) | 31.3 µM (inactive) | 23.6 µM (inactive) | 24.7 µM (inactive) | 20.5 µM (inactive) | 37.8 µM (inactive) | 24.2 µM (inactive) | 35.6 µM (inactive) | 17.1 µM (inactive) |  | 16.7 µM (inactive)
CCCNC(=O)N1CC(CN2CCN(c3ccccc3)CC2)O/C1=N/C(=O)Nc1ccccc1 (stereo not drawn) | > 100 µM (inactive) | > 100 µM (inactive) | > 100 µM (inactive) | 3.83 µM (inactive) | 89.3 µM (inactive) | 68.7 µM (inactive) | > 100 µM (inactive) | > 100 µM (inactive) | > 100 µM (inactive) | 84.5 µM (inactive) | > 100 µM (inactive) |  | 45.5 µM (inactive) | 43.3 µM (inactive) | > 100 µM (inactive) | > 100 µM (inactive) | > 100 µM (inactive) | 99.3 µM (inactive) | 30.5 µM (inactive) | 
CC(C)(C)CNCCCNc1ccc(Cl)cc1 | 70.6 µM (inactive) |  |  | < 0.01 µM (active) | 13.6 µM (inactive) | 20.2 µM (inactive) | 58.1 µM (inactive) | < 0.01 µM (active) | 23.2 µM (inactive) | 30.1 µM (inactive) | 37.2 µM (inactive) |  | 51.3 µM (inactive) | 15.7 µM (inactive) | > 100 µM (inactive) | 28.7 µM (inactive) | > 100 µM (inactive) | 17.2 µM (inactive) | 61.2 µM (inactive) | 5.41 µM (inactive)
